The results in this text go back to publication PMC4685510, “A Cell Biologist’s Field Guide to Aurora Kinase Inhibitors” (Frontiers in Oncology, 2015).

Holding throughout (test): biochemical
Common to all, as to format: biochemical

For experiment [1], the target named is T1, 363 human kinases (including Aurora A/B/C) (Homo sapiens, UniProt O15146).
T1 sequence (O15146 24-869): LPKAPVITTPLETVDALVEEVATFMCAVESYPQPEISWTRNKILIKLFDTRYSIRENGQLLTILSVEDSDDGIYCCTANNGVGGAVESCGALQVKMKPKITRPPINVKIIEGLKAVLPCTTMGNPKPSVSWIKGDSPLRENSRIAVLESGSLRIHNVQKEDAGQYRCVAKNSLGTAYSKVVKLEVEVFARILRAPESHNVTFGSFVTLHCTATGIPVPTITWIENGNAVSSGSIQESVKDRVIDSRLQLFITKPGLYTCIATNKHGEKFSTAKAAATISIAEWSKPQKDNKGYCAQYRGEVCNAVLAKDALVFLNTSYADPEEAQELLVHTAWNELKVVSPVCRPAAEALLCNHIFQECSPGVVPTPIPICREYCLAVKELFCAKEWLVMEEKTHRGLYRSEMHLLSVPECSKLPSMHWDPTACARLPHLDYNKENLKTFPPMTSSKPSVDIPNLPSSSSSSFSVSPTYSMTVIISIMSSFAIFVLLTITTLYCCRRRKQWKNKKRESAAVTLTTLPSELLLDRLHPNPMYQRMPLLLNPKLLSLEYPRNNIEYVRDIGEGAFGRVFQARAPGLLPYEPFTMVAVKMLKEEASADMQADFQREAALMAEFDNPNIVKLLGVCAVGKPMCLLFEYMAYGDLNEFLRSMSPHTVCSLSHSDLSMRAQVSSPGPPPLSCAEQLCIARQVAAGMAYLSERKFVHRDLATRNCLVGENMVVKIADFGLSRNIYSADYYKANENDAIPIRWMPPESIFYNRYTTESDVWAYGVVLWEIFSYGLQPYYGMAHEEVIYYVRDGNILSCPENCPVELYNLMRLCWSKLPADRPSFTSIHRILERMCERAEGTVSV
Conditions: MUSK; for remaining activity at 0.1 µM: 100 nM; for remaining activity at 0.1 µM / remaining activity at 0.5 µM: read-out: % Enzyme Activity (relative to DMSO controls).
From the text: (§1) However, the Aurora A/B selectivity ratios derived from our in vitro and in vivo data can be compared to prioritize inhibitors.

In experiment [2] the target is 363 human kinases (including Aurora A/B/C) (Homo sapiens, UniProt P08581). The settings on record: c-MET, [ATP] 30 µM; for remaining activity at 0.1 µM: 100 nM; for remaining activity at 0.1 µM / remaining activity at 0.5 µM: read-out: % Enzyme Activity (relative to DMSO controls).
From the text: as §1
Experiment [3] has as its target 363 human kinases (including Aurora A/B/C) (Homo sapiens, UniProt P54764). Conditions: EPHA4, [ATP] 30 µM; for remaining activity at 0.1 µM: 100 nM; for remaining activity at 0.1 µM / remaining activity at 0.5 µM: read-out: % Enzyme Activity (relative to DMSO controls).
From the text: as §1
The target in experiment [4] is 363 human kinases (including Aurora A/B/C) (Homo sapiens, UniProt Q15569). The settings on record: TESK1; for remaining activity at 0.1 µM: 100 nM; for remaining activity at 0.1 µM / remaining activity at 0.5 µM: read-out: % Enzyme Activity (relative to DMSO controls).
From the text: as §1
Experiment [5] concerns the target 363 human kinases (including Aurora A/B/C) (Homo sapiens, UniProt Q9Y572). Conditions: RIPK3; for remaining activity at 0.1 µM: 100 nM; for remaining activity at 0.1 µM / remaining activity at 0.5 µM: read-out: % Enzyme Activity (relative to DMSO controls).
From the text: as §1
Experiment [6] concerns the target 363 human kinases (including Aurora A/B/C) (Homo sapiens, UniProt Q8N5S9). The settings on record: CAMKK1, [ATP] 5 µM; for remaining activity at 0.1 µM: 100 nM; for remaining activity at 0.1 µM / remaining activity at 0.5 µM: read-out: % Enzyme Activity (relative to DMSO controls).
From the text: as §1
For experiment [7], the target named is 363 human kinases (including Aurora A/B/C) (Homo sapiens, UniProt Q5S007). The settings on record: LRRK2; for remaining activity at 0.1 µM: 100 nM; for remaining activity at 0.1 µM / remaining activity at 0.5 µM: read-out: % Enzyme Activity (relative to DMSO controls).
From the text: as §1
The target in experiment [8] is 363 human kinases (including Aurora A/B/C) (Homo sapiens, UniProt P49761). Conditions: CLK3, [ATP] 10 µM; for remaining activity at 0.1 µM: 100 nM; for remaining activity at 0.1 µM / remaining activity at 0.5 µM: read-out: % Enzyme Activity (relative to DMSO controls).
From the text: as §1
For experiment [9], the target named is 363 human kinases (including Aurora A/B/C) (Homo sapiens, UniProt P08069). Conditions: IGF1R; for remaining activity at 0.1 µM: 100 nM; for remaining activity at 0.1 µM / remaining activity at 0.5 µM: read-out: % Enzyme Activity (relative to DMSO controls).
From the text: as §1
For experiment [10], the target named is T2, 363 human kinases (including Aurora A/B/C) (Homo sapiens, UniProt P15735).
T2 sequence (P15735 1-406): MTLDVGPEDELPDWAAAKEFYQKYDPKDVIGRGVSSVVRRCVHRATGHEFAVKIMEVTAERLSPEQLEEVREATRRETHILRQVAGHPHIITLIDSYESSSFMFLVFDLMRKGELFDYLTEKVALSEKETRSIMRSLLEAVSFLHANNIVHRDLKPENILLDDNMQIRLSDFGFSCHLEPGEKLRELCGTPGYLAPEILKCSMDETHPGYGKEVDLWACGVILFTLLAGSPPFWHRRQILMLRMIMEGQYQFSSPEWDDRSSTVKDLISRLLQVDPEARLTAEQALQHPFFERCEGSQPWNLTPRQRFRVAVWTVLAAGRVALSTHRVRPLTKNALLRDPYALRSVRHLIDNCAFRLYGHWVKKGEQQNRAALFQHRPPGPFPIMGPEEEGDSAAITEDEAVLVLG
The settings on record: PHKg2; for remaining activity at 0.1 µM: 100 nM; for remaining activity at 0.1 µM / remaining activity at 0.5 µM: read-out: % Enzyme Activity (relative to DMSO controls).
From the text: as §1

363 human kinases (including Aurora A/B/C) (Homo sapiens, UniProt Q15569), sequence (Q15569 whole entry): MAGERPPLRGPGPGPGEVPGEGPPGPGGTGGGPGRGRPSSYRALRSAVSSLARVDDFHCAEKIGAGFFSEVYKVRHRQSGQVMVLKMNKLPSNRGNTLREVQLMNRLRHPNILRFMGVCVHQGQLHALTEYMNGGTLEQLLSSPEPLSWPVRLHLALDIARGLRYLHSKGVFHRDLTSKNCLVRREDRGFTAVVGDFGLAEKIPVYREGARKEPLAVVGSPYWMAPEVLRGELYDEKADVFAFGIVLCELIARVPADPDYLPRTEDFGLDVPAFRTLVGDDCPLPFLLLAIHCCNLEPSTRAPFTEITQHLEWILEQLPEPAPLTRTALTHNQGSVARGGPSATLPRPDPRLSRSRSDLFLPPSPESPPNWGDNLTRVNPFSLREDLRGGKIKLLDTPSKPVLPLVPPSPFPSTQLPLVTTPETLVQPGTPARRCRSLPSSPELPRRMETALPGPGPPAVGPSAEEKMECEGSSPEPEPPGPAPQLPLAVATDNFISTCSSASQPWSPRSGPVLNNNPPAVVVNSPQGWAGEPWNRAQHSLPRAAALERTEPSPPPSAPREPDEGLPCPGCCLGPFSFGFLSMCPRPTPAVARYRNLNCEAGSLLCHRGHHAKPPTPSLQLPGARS
363 human kinases (including Aurora A/B/C) (Homo sapiens, UniProt Q8N5S9), sequence (Q8N5S9 whole entry): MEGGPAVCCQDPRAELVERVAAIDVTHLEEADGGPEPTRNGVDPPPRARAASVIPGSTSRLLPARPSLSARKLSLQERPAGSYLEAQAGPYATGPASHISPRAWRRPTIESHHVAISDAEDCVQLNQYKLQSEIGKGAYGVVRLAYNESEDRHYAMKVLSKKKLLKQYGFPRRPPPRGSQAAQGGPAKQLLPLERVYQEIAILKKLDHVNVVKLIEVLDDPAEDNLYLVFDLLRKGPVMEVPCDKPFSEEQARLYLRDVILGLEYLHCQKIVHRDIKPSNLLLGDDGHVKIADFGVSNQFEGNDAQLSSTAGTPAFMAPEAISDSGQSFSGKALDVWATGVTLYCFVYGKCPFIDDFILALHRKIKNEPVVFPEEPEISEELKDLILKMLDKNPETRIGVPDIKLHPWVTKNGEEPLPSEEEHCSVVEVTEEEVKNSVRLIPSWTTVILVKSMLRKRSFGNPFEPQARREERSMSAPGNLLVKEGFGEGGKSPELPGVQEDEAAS
363 human kinases (including Aurora A/B/C) (Homo sapiens, UniProt P54764), sequence (P54764 20-986): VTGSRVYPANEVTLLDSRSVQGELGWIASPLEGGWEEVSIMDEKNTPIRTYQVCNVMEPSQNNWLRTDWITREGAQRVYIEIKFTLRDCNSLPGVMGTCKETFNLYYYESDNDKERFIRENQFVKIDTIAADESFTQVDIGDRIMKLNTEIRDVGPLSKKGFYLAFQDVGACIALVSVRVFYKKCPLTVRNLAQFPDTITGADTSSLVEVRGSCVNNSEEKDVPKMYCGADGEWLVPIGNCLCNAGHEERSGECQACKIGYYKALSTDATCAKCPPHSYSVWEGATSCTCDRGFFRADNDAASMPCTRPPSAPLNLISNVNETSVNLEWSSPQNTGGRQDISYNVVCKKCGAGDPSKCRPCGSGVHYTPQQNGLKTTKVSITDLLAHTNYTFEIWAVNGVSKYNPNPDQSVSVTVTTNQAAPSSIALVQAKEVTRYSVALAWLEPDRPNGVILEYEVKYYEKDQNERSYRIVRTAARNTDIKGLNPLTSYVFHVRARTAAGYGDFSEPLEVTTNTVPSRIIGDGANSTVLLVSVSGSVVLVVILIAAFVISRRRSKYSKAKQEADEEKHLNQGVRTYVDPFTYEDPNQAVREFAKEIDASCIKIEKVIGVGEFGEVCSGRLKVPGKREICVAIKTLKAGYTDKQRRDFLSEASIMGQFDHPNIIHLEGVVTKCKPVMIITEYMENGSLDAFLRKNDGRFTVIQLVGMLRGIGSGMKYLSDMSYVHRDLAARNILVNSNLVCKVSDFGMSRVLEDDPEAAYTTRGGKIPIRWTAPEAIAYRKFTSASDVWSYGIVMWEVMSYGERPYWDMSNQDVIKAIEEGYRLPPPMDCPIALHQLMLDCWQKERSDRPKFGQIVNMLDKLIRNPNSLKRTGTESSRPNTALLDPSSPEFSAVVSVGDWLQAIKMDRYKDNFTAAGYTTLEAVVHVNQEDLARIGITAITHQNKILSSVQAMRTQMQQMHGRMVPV
363 human kinases (including Aurora A/B/C) (Homo sapiens, UniProt P08581), sequence (P08581 25-1390): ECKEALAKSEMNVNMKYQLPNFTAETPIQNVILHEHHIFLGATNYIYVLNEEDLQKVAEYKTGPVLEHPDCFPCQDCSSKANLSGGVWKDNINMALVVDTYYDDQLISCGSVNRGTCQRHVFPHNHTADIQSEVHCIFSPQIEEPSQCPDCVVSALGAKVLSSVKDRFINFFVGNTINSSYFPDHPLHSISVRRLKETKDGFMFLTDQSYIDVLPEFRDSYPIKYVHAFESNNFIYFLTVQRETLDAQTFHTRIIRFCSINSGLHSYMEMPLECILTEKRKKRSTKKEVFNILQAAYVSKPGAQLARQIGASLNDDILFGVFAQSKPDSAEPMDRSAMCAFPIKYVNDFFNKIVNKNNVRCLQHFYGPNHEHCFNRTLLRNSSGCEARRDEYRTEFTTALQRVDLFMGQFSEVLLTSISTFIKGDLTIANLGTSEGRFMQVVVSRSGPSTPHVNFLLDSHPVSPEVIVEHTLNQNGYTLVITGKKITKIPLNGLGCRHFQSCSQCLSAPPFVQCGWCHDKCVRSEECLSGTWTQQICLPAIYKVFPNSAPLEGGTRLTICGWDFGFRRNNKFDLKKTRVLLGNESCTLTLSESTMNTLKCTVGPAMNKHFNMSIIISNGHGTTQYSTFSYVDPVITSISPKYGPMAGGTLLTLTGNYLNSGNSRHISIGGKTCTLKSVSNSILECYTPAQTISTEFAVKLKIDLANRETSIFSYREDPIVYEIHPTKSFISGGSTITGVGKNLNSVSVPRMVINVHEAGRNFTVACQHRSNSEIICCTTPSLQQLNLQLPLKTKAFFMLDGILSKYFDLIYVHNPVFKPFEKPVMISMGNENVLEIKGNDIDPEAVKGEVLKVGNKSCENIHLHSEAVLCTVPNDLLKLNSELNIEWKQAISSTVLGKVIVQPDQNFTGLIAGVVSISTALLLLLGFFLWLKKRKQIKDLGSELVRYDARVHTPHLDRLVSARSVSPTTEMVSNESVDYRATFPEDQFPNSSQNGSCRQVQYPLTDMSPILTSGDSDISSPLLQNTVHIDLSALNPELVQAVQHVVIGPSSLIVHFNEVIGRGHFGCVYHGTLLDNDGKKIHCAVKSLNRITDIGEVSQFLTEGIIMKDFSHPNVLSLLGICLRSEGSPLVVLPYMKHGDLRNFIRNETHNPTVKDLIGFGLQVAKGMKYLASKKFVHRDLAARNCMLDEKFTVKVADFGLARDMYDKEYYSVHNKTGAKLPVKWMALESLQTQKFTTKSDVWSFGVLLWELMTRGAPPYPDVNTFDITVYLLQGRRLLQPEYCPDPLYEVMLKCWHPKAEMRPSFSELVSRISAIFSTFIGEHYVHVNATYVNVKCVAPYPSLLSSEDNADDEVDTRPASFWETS
363 human kinases (including Aurora A/B/C) (Homo sapiens, UniProt P49761), sequence (P49761 whole entry): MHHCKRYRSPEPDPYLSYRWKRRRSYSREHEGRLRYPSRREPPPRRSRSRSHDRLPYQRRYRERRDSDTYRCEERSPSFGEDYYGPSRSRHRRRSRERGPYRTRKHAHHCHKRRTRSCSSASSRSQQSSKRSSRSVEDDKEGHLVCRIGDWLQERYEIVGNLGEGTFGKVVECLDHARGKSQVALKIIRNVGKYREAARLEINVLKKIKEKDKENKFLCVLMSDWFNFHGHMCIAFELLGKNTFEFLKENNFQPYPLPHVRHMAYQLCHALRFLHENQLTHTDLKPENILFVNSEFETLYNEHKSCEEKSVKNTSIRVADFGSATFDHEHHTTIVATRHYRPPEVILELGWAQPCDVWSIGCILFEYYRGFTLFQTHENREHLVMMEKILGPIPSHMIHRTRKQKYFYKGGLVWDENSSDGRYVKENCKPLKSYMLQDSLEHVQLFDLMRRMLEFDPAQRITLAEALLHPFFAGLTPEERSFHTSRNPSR
363 human kinases (including Aurora A/B/C) (Homo sapiens, UniProt Q9Y572), sequence (Q9Y572 whole entry): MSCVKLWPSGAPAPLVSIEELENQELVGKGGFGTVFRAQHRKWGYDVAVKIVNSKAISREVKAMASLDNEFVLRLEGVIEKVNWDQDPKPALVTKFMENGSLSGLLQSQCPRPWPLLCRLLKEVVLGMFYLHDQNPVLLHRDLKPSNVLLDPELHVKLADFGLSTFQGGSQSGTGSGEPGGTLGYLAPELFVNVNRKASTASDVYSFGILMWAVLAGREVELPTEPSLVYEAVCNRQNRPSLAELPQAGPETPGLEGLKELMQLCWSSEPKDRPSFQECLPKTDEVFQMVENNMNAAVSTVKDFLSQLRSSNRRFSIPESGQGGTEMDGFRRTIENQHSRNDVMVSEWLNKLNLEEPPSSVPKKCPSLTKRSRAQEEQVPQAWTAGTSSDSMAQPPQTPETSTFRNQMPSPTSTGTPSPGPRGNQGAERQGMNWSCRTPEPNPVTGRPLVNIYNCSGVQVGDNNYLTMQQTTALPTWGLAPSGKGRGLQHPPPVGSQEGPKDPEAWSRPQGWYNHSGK

Take `CCn1cc(-c2ccnc3[nH]c(-c4cccc(CN(C)C)c4)cc23)c(-c2ccc(NC(=O)N(C)C)cc2)n1` [GSK1070916]: the remaining activity at 0.1 µM in experiment [1] is 96%; in experiment [2] it was 84.8%; in [3], 100%; in experiment [4], 103%; in experiment [5] it was 88.3%; in [6], 110%. Further, the remaining activity at 0.1 µM in [7] worked out at 92.1%; in experiment [8], 83.4%; in experiment [9] it was 97.9%; in experiment [10], 95.3%.

For the compound `O=C(O)[C@]1(Cc2cccc(Nc3nccs3)n2)CC[C@@H](Oc2cccc(Cl)c2F)CC1` [MK-5108], the remaining activity at 0.1 µM was determined as 104% in experiment [1]; 74.5% in [2]; 50.2% in experiment [3]; 97.9% in experiment [4]; 122% in experiment [5]; 108% in experiment [6]. Moreover, the remaining activity at 0.1 µM was determined as 52.7% in experiment [7], 97.5% in experiment [8], 81.1% in experiment [9] and 92.2% in [10]. Moreover, the remaining activity at 0.5 µM in [1] (500 nM) came to 71.9%; in experiment [2] (500 nM) it was 50.3%; in experiment [3] (500 nM), 21.2%; in experiment [4] (500 nM), 99.8%; in experiment [5] (500 nM), 87.7%; in experiment [6] (500 nM), 104%. Also, the remaining activity at 0.5 µM in [7] (500 nM) turned out to be 14.2%; in experiment [8] (500 nM) it was 71.5%; in experiment [9] (500 nM) it was 43.9%; in experiment [10] (500 nM), 93.6%.

Take `O=C(c1cccc(Cl)c1F)N1CCN(Cc2cccc(Nc3nccs3)n2)CC1` [MK-8745]: the “% Enzyme Activity (relative to DMSO controls)” value in experiment [1] (500 nM) is on record as 94.70%; in [2] (500 nM) it was 76.29%; in [3] (500 nM), 87.10%; in experiment [4] (500 nM), 97.82%; in experiment [5] (500 nM), 90.81%; in experiment [6] (500 nM), 105.68%. In addition, the “% Enzyme Activity (relative to DMSO controls)” value in [7] (500 nM) is on record as 88.73%; in [8] (500 nM), 82.30%; in experiment [9] (500 nM) it was 65.00%; in [10] (500 nM), 94.03%. Moreover, the remaining activity at 0.5 µM was 95.3% in experiment [1] (500 nM); 77.2% in experiment [2] (500 nM); 87.2% in experiment [3] (500 nM); 99.9% in experiment [4] (500 nM); 94.8% in [5] (500 nM); 106% in experiment [6] (500 nM). In addition, the remaining activity at 0.5 µM in [7] (500 nM) amounted to 92.8%; in [8] (500 nM), 82.7%; in [9] (500 nM), 66.7%; in experiment [10] (500 nM) it was 94.7%.
